Experimental data as given in patent US20180057505A1, “BICYCLIC HETEROARYL COMPOUNDS USEFUL AS INHIBITORS OF THE PAR-2 SIGNALING PATHWAY” (VERTEX PHARMACEUTICALS INCORPORATED, priority 2015, published 2018).

Key:
Format in all cases: cell-based
[1] = biological target: T1, PAR2 (HT-29 cells) (Homo sapiens, UniProt P55085); experiment: Ca FLIPR TETRA assay, ANTAGONIST mode, activator 3.1 U/mL trypsin; conditions: HT-29 cells; activator 3.1 U/mL trypsin; Method A: maximal concentration of antagonist 0.1, 1 or 2 μM
T1 construct: host or cells: HT-29
T1 sequence (P55085 26-397): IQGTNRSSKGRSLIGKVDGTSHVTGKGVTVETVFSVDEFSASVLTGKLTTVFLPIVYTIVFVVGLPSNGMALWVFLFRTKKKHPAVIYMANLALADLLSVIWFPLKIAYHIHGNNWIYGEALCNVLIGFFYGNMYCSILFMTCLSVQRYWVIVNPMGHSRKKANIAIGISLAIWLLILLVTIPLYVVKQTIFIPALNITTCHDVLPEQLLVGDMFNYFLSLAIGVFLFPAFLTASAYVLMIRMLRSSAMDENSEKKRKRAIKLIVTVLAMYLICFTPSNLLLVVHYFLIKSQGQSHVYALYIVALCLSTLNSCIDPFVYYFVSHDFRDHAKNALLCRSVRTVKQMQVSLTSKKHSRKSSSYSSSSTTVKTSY
Procedure, shortened: (§1)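 Antagonist-mode FLIPR Tetra Ca2+ read: dye-loaded HT-29 cells preincubated 30 min at r.t. with compound (first read checks agonism alone), then challenged with final 3.1 U/mL trypsin, 8 μM SLIGKV, 1 U/mL thrombin or 0.6 μM UTP. Cells plated overnight in 1% FBS McCoy's; Calcium 5 loading 45 min 37 °C plus 15 min r.t.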

[2] = biological target: T1, PAR2 (HT-29 cells); experiment: Ca FLIPR TETRA assay, ANTAGONIST mode, activator 8 μM SLIGKV; conditions: HT-29 cells; activator 8 μM SLIGKV; Method A: maximal concentration of antagonist 0.1, 1 or 2 μM
Procedure, shortened: as §1

[3] = test system: UTP-stimulated Ca2+ response in HT-29 cells; experiment: Ca FLIPR TETRA assay, ANTAGONIST mode, activator 0.6 μM UTP; conditions: HT-29 cells, activator 0.6 μM UTP
Procedure, shortened: as §1

[4] = test system: Thrombin-stimulated Ca2+ response in HT-29 cells; experiment: Ca FLIPR TETRA assay, ANTAGONIST mode, activator 1 U/mL Thrombin; conditions: HT-29 cells, activator 1 U/mL Thrombin
Procedure, shortened: as §1

Row | SMILES | IC50 [1] [nM] | IC50 [2] [nM] | IC50 ([3]; Homo sapiens) [nM] | IC50 ([4]; Homo sapiens) [nM] | IC50 [3] [nM] | IC50 [4] [nM]
1 | CC(C)(CCC(=O)N1CCN(C(=O)c2cc3nc(-c4ccc(Cl)c(F)c4)cc(C(C)(C)C)c3o2)C(C)(C)C1)C(=O)O [Example I-367] | 0.4 | 0.2 | > 1550 | > 1550 |  | 
2 | CC(C)(C)c1cc(-c2ccc(Cl)cc2)nc2cc(C(=O)N3CCN(c4ncc(C(=O)O)cn4)C(=O)C3(C)C)oc12 [Example I-369] | 19 | 12 | > 2000 | > 2000 |  | 
3 | CC(C)(C)c1cc(-c2ccc(Cl)cc2)nc2cc(C(=O)N3CCN(c4ncc(F)cn4)CC3(C)C)oc12 [Example I-370] | 17 | 17 | > 2000 | > 2000 |  | 
4 | Cc1cnc(N2CCN(C(=O)c3cc4nc(-c5ccc(Cl)c(F)c5)cc(C(C)(C)C)c4o3)C(C)(C)C2=O)nc1 [Example I-371] | 5.2 | 5.2 |  |  | > 2000 | > 2000
5 | CC(C)(C)c1cc(-c2ccc(Cl)c(F)c2)nc2cc(C(=O)N3CCN(C(=O)CC4(C(=O)O)CCC4)CC3(C)C)oc12 [Example I-372] | 0.3 | 0.2 | > 2000 | > 2000 |  | 
6 | CC(C)[C@@H](CC(=O)O)C(=O)N1CCN(C(=O)c2cc3nc(-c4ccc(Cl)c(F)c4)cc(C(C)(C)C)c3o2)C(C)(C)C1 [Example I-373] | 0.8 | 0.6 | > 1100 | > 1100 |  | 
7 | CC(C)[C@H](CC(=O)O)C(=O)N1CCN(C(=O)c2cc3nc(-c4ccc(Cl)c(F)c4)cc(C(C)(C)C)c3o2)C(C)(C)C1 [Example I-374] | 4.1 | 3.6 | > 2000 | > 2000 |  | 
8 | CC(C)(C)c1cc(-c2ccc(Cl)c(F)c2)nc2cc(C(=O)N3CCN(C(=O)[C@@H]4CCC[C@H](C(=O)O)C4)CC3(C)C)oc12 [Example I-375] | 0.7 | 0.3 | > 2000 | > 2000 |  | 
9 | CC(C)(C)c1cc(-c2ccc(Cl)c(F)c2)nc2cc(C(=O)N3CCN(C(=O)CCP(C)(=O)O)CC3(C)C)oc12 [Example I-376] | 290 | 280 | > 2000 | > 2000 |  | 
10 | CC1(C)CCC(c2cc(C(C)(C)C)c3oc(C(=O)N4CCN(C(=O)CC[C@H](N)C(=O)O)CC4(C)C)cc3n2)CC1 [Example I-377] | 470 | 400 | > 2000 | > 2000 |  | 
11 | CC1(C)CCC(c2cc(C(C)(C)C)c3oc(C(=O)N4CCN(C(=O)CCCC(=O)O)CC4(C)C)cc3n2)CC1 [Example I-378] | 3.5 | 1.7 | > 2000 | > 2000 |  | 
12 | CC1(C)CCC(c2cc(C(C)(C)C)c3oc(C(=O)N4CCN(C(=O)c5ccc(C(=O)O)cn5)CC4(C)C)cc3n2)CC1 [Example I-379] | 56 | 26 | > 2000 | > 2000 |  | 
13 | CC1(C)CCC(c2cc(C(C)(C)C)c3oc(C(=O)N4CCN(C(=O)c5ccc(C(=O)O)nc5)CC4(C)C)cc3n2)CC1 [Example I-380] | 240 | 210 | > 2000 | > 2000 |  | 
14 | CC(C)(C)c1cc(-c2ccc(Cl)c(F)c2)nc2cc(C(=O)N3CCN(c4ccc(F)c(C(=O)O)n4)CC3(C)C)oc12 [Example I-381] | 2.7 | 0.9 | > 2000 | > 2000 |  | 
15 | Cc1coc(N2CCN(C(=O)c3cc4nc(C5CCC(C)(C)CC5)cc(C(C)(C)C)c4o3)C(C)(C)C2)n1 [Example I-382] | 100 | 120 | > 2000 | > 2000 |  | 
16 | Cc1cccc(C2CCN(C(=O)c3cc4nc(-c5ccc(Cl)cc5)cc(C(C)(C)C)c4o3)C(C)(C)C2)n1 (stereo not drawn) [Example I-383] | 12 | 19 |  |  | > 2000 | > 2000
17 | Cc1nc(C(=O)O)cnc1C1CCN(C(=O)c2cc3nc(C4CCC(C)(C)CC4)cc(C(C)(C)C)c3o2)C(C)(C)C1 (stereo not drawn) [Example I-384] | 2.2 | 2.5 |  |  | > 2000 | > 2000
18 | Cc1nc(C)c(N2CCN(C(=O)c3cc4nc(-c5ccc(Cl)cc5)cc(C(C)(C)C)c4o3)C(C)(C)C2=O)o1 [Example I-386] | 40 | 50 | > 2000 | > 2000 |  | 
19 | Cc1cncc(N2CCN(C(=O)c3cc4nc(-c5ccc(Cl)cc5)cc(C(C)(C)C)c4o3)C(C)(C)C2)n1 [Example I-387] | 10 | 12 | > 2000 | > 2000 |  | 
20 | Cc1cnc(N2CCN(C(=O)c3cc4nc(-c5ccc(Cl)cc5)cc(C(C)(C)C)c4o3)C(C)(C)C2)nc1 [Example I-388] | 28.5 | 36 | > 2000 | > 2000 |  | 
21 | Cc1nccc(N2CCN(C(=O)c3cc4nc(-c5ccc(Cl)cc5)cc(C(C)(C)C)c4o3)C(C)(C)C2)n1 [Example I-389] | 23 | 22 | > 2000 | > 2000 |  | 
22 | Cc1cc(N2CCN(C(=O)c3cc4nc(-c5ccc(Cl)cc5)cc(C(C)(C)C)c4o3)C(C)(C)C2)ncn1 [Example I-390] | 12.5 | 19 | > 2000 | > 2000 |  | 
23 | CC1(C)CCC(c2cc(C(C)(C)C)c3oc(C(=O)N4CCN(c5ncc(C(=O)O)cc5F)CC4(C)C)cc3n2)CC1 [Example I-391] | 0.4 | 0.4 | 1010 | > 1010 |  | 
24 | Cc1nc(C(=O)O)cnc1N1CCN(C(=O)c2cc3nc(-c4ccc(Cl)cc4)cc(C(C)(C)C)c3o2)C(C)(C)C1 [Example I-392] | 2.8 | 3.8 | > 2000 | > 2000 |  | 
25 | CC(C)(C)c1cc(-c2ccc(Cl)cc2)nc2cc(C(=O)N3CCN(c4ncc(C(=O)O)cc4F)CC3(C)C)oc12 [Example I-393] | 0.3 | 0.4 | 860 | > 1010 |  | 
26 | Cc1cccnc1N1CCN(C(=O)c2cc3nc(-c4ccc(Cl)cc4)cc(C(C)(C)C)c3o2)C(C)(C)C1 [Example I-394] | 55 | 58 | > 2000 | > 2000 |  | 
27 | Cc1ccc(N2CCN(C(=O)c3cc4nc(-c5ccc(Cl)cc5)cc(C(C)(C)C)c4o3)C(C)(C)C2)nc1 [Example I-395] | 40.5 | 56 | > 2000 | > 2000 |  | 
28 | CC(C)(C)c1cc(-c2ccc(Cl)c(F)c2)nc2cc(C(=O)N3CCN(c4ncc(C(=O)O)cc4F)CC3(C)C)oc12 [Example I-396] | 0.3 | 0.3 | 1060 | 1010 |  | 
29 | Cc1ccc(C(=O)O)nc1C1CCN(C(=O)c2cc3nc(-c4ccc(Cl)cc4)cc(C(C)(C)C)c3o2)C(C)(C)C1 (stereo not drawn) [Example I-397] | 0.6 | 0.6 |  |  | 760 | > 1010
30 | Cc1cc(N2CCN(C(=O)c3cc4nc(C5CCC(C)(C)CC5)cc(C(C)(C)C)c4o3)C(C)(C)C2)ncc1C(=O)O [Example I-398] | 0.5 | 0.4 | 1010 | > 1010 |  | 
